{"source": "patent US20080070987A1", "about": "“META-XYLYLENEDIAMINE VANADATE SALTS” (priority 2006, published 2008)", "test_system": "isolated rat adipocytes", "assay": "Glucose (2-deoxyglucose) transport in isolated rat adipocytes", "format": "cell-based, Wistar rats", "settings": "for effect of semicarbazide on the stimulation of glucose transport: 1 mM semicarbazide; for stimulation of glucose transport (2-DG uptake), in words: 45 min incubation; for stimulation of glucose transport compared with the combination of benzylamine and vanadate: combination 100 μM benzylamine and 100 μM vanadate", "procedure": "FIG. 1 is a graphical illustration of the hexaquis(benzylammonium) decavanadate effects on glucose transport in isolated rat adipocytes. In this Figure, V corresponds to the rate of 2-deoxyglucose transport (expressed relative to the basal rate), and the results are mean +standard error of the mean (SEM). The adipocytes were incubated in the absence of stimulants in the following conditions: basal (1); in the presence of 100 nM insulin (2); in the presence of hexaquis(benzylammonium) decavanadate at concentrations of 0.5 μM (3), 1 μM (4), 2.5 μM (5), 5 μM (6), 10 μM (7), 25 μM (8), 50 μM (9), and 100 μM (10). The cells were also incubated in the presence of the semicarbazide inhibitor (1 mM), and 10 μM hexaquis(benzylammonium) decavanadate (11), 25 μM of hexaquis(benzylammonium) decavanadate (12) or 50 μM hexaquis(benzylammonium) decavanadate (13). In parallel, the cells were incubated in presence of 100 μM of sodium vanadate and 100 μM of benzylamine, in the absence (14) or in the presence of 1 mM of semicarbazide (15).\nFIG. 2 is a graphical illustration of the effects of hexaquis(benzylammonium) decavanadate, pentaquis(benzylammonium) decavanadate and tetraquis(benzylammonium) decavanadate on glucose transport in isolated rat adipocytes. V corresponds to the rate of 2-deoxyglucose uptake (expressed as relation with basal group), and the results are mean +standard error mean. The adipocytes were incubated in the absence of stimulants in the following conditions: basal (1); in the presence of 100 nM of insulin (2); in the presence of hexaquis(benzylammonium) decavanadate at concentrations of 10 μM (3) and 25 μM (4), pentaquis(benzylammonium) decavanadate at concentrations of 10 μM (8) and 25 μM (9), and tetraquis(benzylammonium) decavanadate at concentrations of 10 μM (11) and 25 μM (12). The cells were also incubated in the presence of the semicarbazide inhibitor (1 mM) and, 25 μM of hexaquis(benzylammonium) decavanadate (5), 25 μM of pentaquis(benzylammonium) decavanadate (10) or 25 μM of tetraquis(benzylammonium) decavanadate (13). In parallel, the cells were incubated in the presence of 100 μM of sodium vanadate (6) or in the presence of 250 μM of sodium vanadate (7).\nAdipose cells from Wistar rats were incubated for 45 minutes in basal conditions (Basal) or in the presence of 100 nM insulin (Ins) and different concentrations of. hexaquis(benzylammonium) decavanadate (B6V10) in the absence or in the presence of 1 mM semicarbazide (SCZ). Subsequently, 2-DG transport was measured over a 5 min. interval.\nThe effects of the three tested compounds (B6V10, B5V10 and B4V10) were compared. Adipose cells from Wistar rats were incubated for 45 minutes in basal conditions (Basal) or in the presence of 100 nM insulin (Ins), and different concentrations of decavanadate (V10), hexaquis(benzylammonium) decavanadate (B6V10), pentaquis(benzylammonium) decavanadate (B5V10) or tetraquis(benzylammonium) decavanadate (B4V10) in the absence or in the presence of 1 mM semicarbazide (SCZ). 2-DG transport was measured over 5 min. intervals.\nIn additional experiments, compounds shown in FIG. 6A, 2-(4-fluoro-phenyl)ethylamine (compound A), 3-phenylpropylamine (compound B), 4-fluoro-benzylamine (compound C) and 4-phenylbutylamine (compound D) were assessed using the experimental methods set forth above for the capacity to stimulate 2-DG uptake in isolated rat adipocytes. Adipose cells from Wistar rats were incubated for 45 minutes in basal conditions (Basal) or in the presence of 100 nM insulin (Ins), and different concentrations of vanadium salts of 2-(4-fluoro-phenyl)-ethylamine (compound A), 3-phenyl-propylamine (compound B), 4-fluoro-benzylamine (compound C) and 4-phenyl-butylamine (compound D). 2-DG transport was measured over 5 min.\nThe effects of incubation with semicarbazide or phosphatidylinositol 3-kinase inhibitors were also investigated. […]", "key": {"[1]": {"settings": "listed as hexaquis(benzylammonium) decavanadate"}}, "note": "Entries after “also recorded” stand apart in the source; their conditions may differ.", "data": [{"substance": "hexaquis(benzylammonium) decavanadate [Example B6V10]", "values": [{"measurement": "effect of semicarbazide on the stimulation of glucose transport", "value": "completely blocked by semicarbazide; also recorded: blocked in the presence of semicarbazide"}, {"measurement": "effect of semicarbazide on the stimulation of glucose transport", "setting": "[1]", "value": "completely blocked by semicarbazide"}, {"measurement": "stimulation of glucose transport (2-DG uptake), in words", "value": "concentration-dependent manner"}, {"measurement": "stimulation of glucose transport (2-DG uptake), in words", "setting": "[1]", "value": "pronounced stimulation on glucose transport"}, {"measurement": "concentration from which stimulation of glucose transport is perceptible", "setting": "FIG. 1", "value": 0.5, "unit": "µM"}, {"measurement": "concentration of maximal effect on glucose transport", "setting": "FIG. 1", "value": 2.5, "unit": "µM"}, {"measurement": "EC50", "setting": "FIG. 1, read-out: concentration of semimaximal effect on glucose transport", "value": "> 1000", "unit": "nM"}, {"measurement": "stimulation of glucose transport compared with the combination of benzylamine and vanadate", "value": "greater stimulation"}, {"measurement": "stimulation of glucose transport compared with the combination of benzylamine and vanadate", "setting": "[1]", "value": "greater than that produced by the presence of benzylamine and vanadate in combination"}, {"measurement": "maximal effect on glucose transport as % of the maximal stimulation caused by insulin", "setting": "insulin 100 nM", "value": 85, "unit": "%"}]}, {"substance": "sodium decavanadate [Example V10, reference compound]", "values": [{"measurement": "stimulation of glucose transport, in words", "setting": "concentrations ranging from 5 to 50 μM", "value": "did not stimulate glucose transport"}]}]}
